This experiment addresses T1, Human Polymorphonuclear Leukocyte Elastase (Homo sapiens, UniProt P08246).
T1 construct: Crude extract of human polymorphonuclear leukocytes (PMN) containing elastase activity; endogenous in cells; host or cells: human polymorphonuclear leukocytes (crude extract)
T1 sequence (P08246 30-247 limits assumed): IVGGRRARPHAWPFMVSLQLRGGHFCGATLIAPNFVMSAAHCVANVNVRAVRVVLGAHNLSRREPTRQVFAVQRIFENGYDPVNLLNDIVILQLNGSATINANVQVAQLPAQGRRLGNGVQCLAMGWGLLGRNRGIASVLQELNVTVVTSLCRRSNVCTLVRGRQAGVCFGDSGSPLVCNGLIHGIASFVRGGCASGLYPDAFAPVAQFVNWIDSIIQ
As to the kind of experiment: Enzyme assay for the inhibition of human polymorphonuclear leukocyte elastase via hydrolysis of N-t-Boc-alanyl-alanyl-prolylalanine-p-nitroanilide. It counts as biochemical. The conditions noted are these: measured within 2 minutes, crude PMN extract, 0.2 mM Boc-AAPAN, pH 7.5; for inhibition at 20 µg/mL: Conc. 20 μg/ml; for inhibition at 50 µg/mL: Conc. 50 μg/ml; for inhibition at 5 µg/mL: Conc. 5 μg/ml; for inhibition at 0.5 µg/mL: Conc. 0.5 μg/ml; for inhibition at 1 µg/mL: Conc. 1 μg/ml; for inhibition at 2 µg/mL: Conc. 2 μg/ml; for inhibition at 10 µg/mL: Conc. 10 μg/ml. As to the method:
Protocol--Enzyme Assays for the Inhibition of Human Polymorphonuclear Leukocyte Elastase Via Hydrolysis of N-t-Boc-alanyl-alanyl-prolylalanine-p-nitroanilide
0.05M TES (N-tris[hydroxymethyl]methyl-2-amino-ethanesulfonic acid) Buffer, pH 7.5.
0.2 mM N-to-Boc-alanyl-alanyl-Prolyl-Alanine-p-nitroanilide (Boc-AAPAN).
To prepare substrate, the solid (m.w. 550) was first dissolved in 10.0 ml DMSO. Buffer at pH 7.5 was then added to a final volume of 100 ml.
Crude extract of human polymorphonuclear leukocytes (PMN) containing elastase activity.
Inhibitors (carbapenem esters) to be tested dissolved in DMSO just before use.
To 1.0 ml of 0.2 mM Boc-AAPAN in a cuvette, 0.01-0.1 ml of DMSO with or without inhibitor was added. After mixing, a measurement was taken at 410 mμ to detect any spontaneous hydrolysis due to presence of test compound. 0.05 Milliliters of PMN extract was then added and the ΔOD/min at 410 mμ was measured and recorded. Beckman model 35 spectrophotometer was used.
The elastase activity in the crude PMN extract may vary from one preparation to another. A control of each new batch is run, and the volume added in the assay procedure is adjusted according to activity.

Usually inhibition stands for the change of the read-out against control, counted positive when it falls. In the case of `CC=C1C(=O)N2C(C(=O)OCc3ccc([N+](=O)[O-])cc3)=C(SCCN3C(=O)c4ccccc4C3=O)CC12` (stereo not shown), the inhibition at 20 µg/mL worked out at 47% and the inhibition at 50 µg/mL was 73%.
The corresponding values for `CC(O)C1C(=O)N2C(C(=O)OCc3ccc([N+](=O)[O-])cc3)=C(SCc3ccccc3)CC12` (stereo not shown) are 50% and 75%.
Take `CC(O)C1C(=O)N2C(C(=O)OCc3ccc([N+](=O)[O-])cc3)=C(SCc3ccccn3)CC12` (stereo not shown): the inhibition at 5 µg/mL is 63% and the inhibition at 20 µg/mL is 100%.
As to `CC(O)C1C(=O)N2C(C(=O)OCc3ccc([N+](=O)[O-])cc3)=C(Sc3ccncc3)CC12` (stereo not shown), the inhibition at 0.5 µg/mL amounted to 21%, the inhibition at 1 µg/mL stood at 72%, the inhibition at 5 µg/mL stood at 93% and the inhibition at 20 µg/mL amounted to 100%.
Compound `CC(O)C1C(=O)N2C(C(=O)OCc3ccc([N+](=O)[O-])cc3)=C(SCCO)CC12` (stereo not shown) showed an inhibition at 20 µg/mL of 84% and an inhibition at 50 µg/mL of 95%.
In the case of `CC(OC(=O)OCc1ccccc1[N+](=O)[O-])C1C(=O)N2C(C(=O)OCc3ccccc3[N+](=O)[O-])=C(c3ccc(CN=[N+]=[N-])cc3)CC12` (stereo not shown), 1 µg/mL produced 59% inhibition, the inhibition at 2 µg/mL came out at 66%, the inhibition at 5 µg/mL is 74% and testing at 10 µg/mL gave an inhibition of 76%. The inhibition at 50 µg/mL turned out to be 79%.
Consider `CC(NC(=O)OCc1ccccc1[N+](=O)[O-])C1C(=O)N2C(C(=O)OCc3ccccc3[N+](=O)[O-])=CCC12` (stereo not shown), for which testing at 5 µg/mL gave an inhibition of 23%, at 10 µg/mL the inhibition was 57%, the inhibition at 20 µg/mL was determined as 72% and the inhibition at 50 µg/mL was 82%.
For the compound `CC(OC(=O)OCc1ccccc1[N+](=O)[O-])C1C(=O)N2C(C(=O)OCc3ccccc3[N+](=O)[O-])=CCC12` (stereo not shown), at 0.5 µg/mL the inhibition was 27%, the inhibition at 1 µg/mL came out at 46%, 2 µg/mL produced 78% inhibition and 5 µg/mL produced 85% inhibition. The compound further returned an inhibition at 10 µg/mL of 88% and an inhibition at 20 µg/mL of 88%.
In turn, `O=C(OCc1ccccc1)C1=C(SCc2ccccc2)CC2C(CO)C(=O)N12` (stereo not shown) [Benzyl] came in with an inhibition at 1 µg/mL of 77%, an inhibition at 5 µg/mL of 90%, an inhibition at 10 µg/mL of 93% and an inhibition at 50 µg/mL of 97%.

For the origin of these results see patent US4493839A, “1-Carbapenem-3-carboxylic esters as anti-inflammatory agents” (Merck & Co., Inc., priority 1982, dated 1985).
